Data reported in ChEMBL document CHEMBL2074430, “Transient expression of oatp organic anion transporter in mammalian cells: identification of candidate substrates” (Am J Physiol, 1996).
Each block holds one compound with its values, some of them ahead of it.

What was measured:
Assay type in all cases: functional, cell-based
Settings in all cases: human
[1] = biological target: T1, Solute carrier organic anion transporter family member 1A1 (Rattus norvegicus, UniProt P46720); test: TP_TRANSPORTER: uptake in Oatp1-expressing HeLa cells
T1 sequence (P46720 whole entry): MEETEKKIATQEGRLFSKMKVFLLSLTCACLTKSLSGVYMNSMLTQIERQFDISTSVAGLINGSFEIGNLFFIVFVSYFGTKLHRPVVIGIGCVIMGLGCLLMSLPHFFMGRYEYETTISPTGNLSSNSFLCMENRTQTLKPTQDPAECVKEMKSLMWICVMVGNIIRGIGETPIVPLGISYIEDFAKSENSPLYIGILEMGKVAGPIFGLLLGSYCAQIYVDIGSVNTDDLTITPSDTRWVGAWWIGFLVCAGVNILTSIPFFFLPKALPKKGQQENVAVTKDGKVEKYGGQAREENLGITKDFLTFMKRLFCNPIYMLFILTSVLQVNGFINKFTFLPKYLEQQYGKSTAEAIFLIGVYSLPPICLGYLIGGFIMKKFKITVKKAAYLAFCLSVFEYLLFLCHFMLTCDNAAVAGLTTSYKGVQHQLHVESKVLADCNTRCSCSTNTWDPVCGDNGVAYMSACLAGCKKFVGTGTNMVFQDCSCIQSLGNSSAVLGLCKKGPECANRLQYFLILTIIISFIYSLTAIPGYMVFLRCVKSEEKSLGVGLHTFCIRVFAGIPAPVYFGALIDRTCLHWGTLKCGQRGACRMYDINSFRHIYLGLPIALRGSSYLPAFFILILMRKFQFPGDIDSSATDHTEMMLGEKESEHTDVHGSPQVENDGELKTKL

[2] = biological target: T1, Solute carrier organic anion transporter family member 1A1; test: TP_TRANSPORTER: inhibition of BSP uptake (BSP: 1 uM, Corticosterone: 100 uM) in Oatp1-expressing HeLa cells
[3] = biological target: T1, Solute carrier organic anion transporter family member 1A1; test: TP_TRANSPORTER: inhibition of BSP uptake (BSP: 1 uM, Spironolactone: 100 uM) in Oatp1-expressing HeLa cells
[4] = biological target: T1, Solute carrier organic anion transporter family member 1A1; test: TP_TRANSPORTER: inhibition of BSP uptake (BSP: 1 uM, Hydrocortisone: 100 uM) in Oatp1-expressing HeLa cells
[5] = biological target: T1, Solute carrier organic anion transporter family member 1A1; test: TP_TRANSPORTER: inhibition of BSP uptake (BSP: 1 uM, Aldosterone: 100 uM) in Oatp1-expressing HeLa cells

Activity [1]: is not a substrate [-]
Compound: CCCCC[C@H](O)/C=C/[C@H]1[C@H](O)CC(=O)[C@@H]1C/C=C\CCCC(=O)O [DINOPROSTONE]

Activity [1]: is not a substrate [-]
Compound: Nc1ccc(C(=O)NCC(=O)O)cc1 [AMINOHIPPURIC ACID]

Compound: C[C@]12C[C@H](O)[C@H]3[C@@H](CCC4=CC(=O)CC[C@@]43C)[C@@H]1CC[C@@H]2C(=O)CO [CORTICOSTERONE]
Activity [2]: inhibitor [(at a rough estimate) 15 % of control]

Compound: CC(=O)S[C@@H]1CC2=CC(=O)CC[C@]2(C)[C@H]2CC[C@@]3(C)[C@@H](CC[C@@]34CCC(=O)O4)[C@H]12 [SPIRONOLACTONE]
Activity [3]: inhibitor [(at a rough estimate) 10 % of control]

Compound: C[C@]12CCC(=O)C=C1CC[C@@H]1[C@@H]2[C@@H](O)C[C@@]2(C)[C@H]1CC[C@]2(O)C(=O)CO [HYDROCORTISONE]
Activity [4]: inhibitor [(at a rough estimate) 30 % of control]

Compound: C[C@]12CCC(=O)C=C1CC[C@@H]1[C@@H]2[C@@H](O)C[C@]2(C=O)[C@@H](C(=O)CO)CC[C@@H]12 [ALDOSTERONE]
Activity [5]: inhibitor [(at a rough estimate) 20 % of control]
